Experimental data: patent US20210010086A1, “MNK BIOMARKERS AND USES THEREOF” (eFFECTOR Therapeutics, Inc., priority 2015, published 2021)

Experiments:
TMD8 cells [1] = test: Polysome profiling; assay type: cell-based, human; conditions: 0.3 or 10 μM, 3 or 48 hours
Method: TMD8 human diffuse large B-cell lymphoma line was cultured in RPMI media supplemented with penicillin G (100 U/ml), streptomycin (100 μg/ml), 10% FBS in a humidified atmosphere of 5% CO2 maintained at 37° C. • (b) Drug Treatment TMD8 cells were seeded prior to drug treatment. The following day, cells were treated with either DMSO (vehicle control) or MNK inhibitor (Compound 107) at the appropriate dose and time. • (c) Immunoblotting Cells were washed with cold PBS supplemented with cycloheximide and lysed with 1× mammalian cell lysis buffer for 10 minutes on ice. Lysates were clarified by centrifugation for 10 minutes at 14,000 rpm and supernatants were collected. The clarified lysate was loaded onto a 10-50% sucrose gradient containing 0.1 mg/ml cycloheximide (gradients were prepared using a BioComp Gradient Station) and centrifuged at 40,000 rpm for 2 hours at 4° C. using a SW40Ti rotor in a BECKMAN COULTER Optima L8-[…] ultra centrifuge. Polysome fractions were isolated using the BioComp Gradient Station. • (f) Ribosome Profiling

IRF7 = test: Immunoblotting of IRF7 protein in TMD8 cells; assay type: cell-based, human; conditions: 48 hours, FIG. 6
Method: (§1) TMD8 human diffuse large B-cell lymphoma line was cultured in RPMI media supplemented with penicillin G (100 U/ml), streptomycin (100 μg/ml), 10% FBS in a humidified atmosphere of 5% CO2 maintained at 37° C. • (b) Drug Treatment
(§2) TMD8 cells were seeded prior to drug treatment. The following day, cells were treated with either DMSO (vehicle control) or MNK inhibitor (Compound 107) at the appropriate dose and time. • (c) Immunoblotting
(§3) Cells were spun down and washed with PBS and lysed in 1× RIPA buffer (Thermo Fisher) for 15 min at 4° C. Lysates were sonicated briefly and clarified by centrifugation for 15 min at 14,000 rpm and supernatants were collected. Protein concentration in the soluble fraction was determined by BCA protein assay (Thermo Scientific). 20 μg of protein were resolved on 4-20% Bis-Tris gradient gel (Invitrogen) and transferred to nitrocellulose membrane. The resulting blots were blocked for 1 hr at room temperature with Odyssey blocking solution (LI-COR) and then incubated with anti-phospho-eIF4E (Millipore), anti-eIF4E (Santa Cruz), anti-CCND3 (Cell Signaling) or anti-IRF7 (Cell Signaling) at 4° C. overnight. I3-actin was used as a loading control. […] The blots were then washed and scanned, specific proteins were detected by using the LI-COR Odyssey infrared imager. • (d) Non-Radioactive Nascent Protein Synthesis Assay

Cyclin D3 = test: Immunoblotting of cyclin D3 protein in TMD8 cells; assay type: cell-based, human; conditions: increasing concentrations, 48 hours
Method: as §1, §2, §3

activated T cells = test: Cell surface PD-1 and LAG-3 on CD3/CD28 activated T cells; assay type: cell-based
TMD8 cells [2] = test: Ribosome profiling (translational rate RPF, translational efficiency, mRNA); assay type: cell-based, human; conditions: for # Genes Down Regulated / # Genes Up Regulated: 10 μM
Method: as §1, §2
Ribosomal profiling allows for measurement of changes in transcription and translation on a genome-wide basis accompanying inhibition of MNK with Compound 107 treatment of human DLBCL cells. Ribosome profiles of the Compound 107 treated TMD8 cells (about 3×10^6 cells/10 cm plate were harvested for ribosome profiling following drug treatment) were prepared and analyzed for changes in translational efficiencies with respect to potential disease-associated cellular changes accompanying MNK inhibition.
Briefly, cells were washed with cold PBS supplemented with cycloheximide and lysed with 1× mammalian cell lysis buffer for 10 minutes on ice. Lysates were clarified by centrifugation for 10 minutes at 14,000 rpm and supernatants were collected. Cell lysates were processed to generate ribosomal protected fragments and total mRNA according to the instructions included with the ARTSEQ Ribosome Profiling Kit (Illumina). Sequencing of total RNA (RNA) and of ribosome-protected fragments of RNA (RPF) was carried out using RNA-Seq methodology according to the manufacturer's instructions (Illumina). To analyze the ribosomal profiles, RNA-Seq reads were processed with tools from the FASTX-Toolkit (fastq quality trimmer, fastx clipper and fastx trimmer). Unprocessed and processed reads were evaluated for a variety of quality measures using FastQC. Processed reads were mapped to the human genome using Tophat. Gene-by-gene assessment of the number of fragments strictly and uniquely mapping to the coding region of each gene was conducted using HTSeq-count, a component of the HTSeq package. Differential analyses of Compound 107 treatment of TMD8 cells were carried out with the software packages DESeq for transcription (RNA counts) and translational rate (RPF counts) and BABEL (Olshen 2013) for translational efficiency based upon ribosomal occupancy (RPF counts) as a function of RNA level (RNA counts). The Log2 fold change in translational efficiency (TE) between drug treated and control is determined from the Log2 fold change difference in RPF and RNA values (drug treated versus to control).
Genes with low counts in either RPF or RNA were excluded from differential analyses. Biological process classification was done using Gene Ontology term analysis.
TMD8 cells were treated with DMSO or Compound 107 (0.3 or 10 μM) and cell lysates from two biological replicates were collected after 3 or 48 hours after treatment. The cell lysates were divided into two fractions and processed to quantitate the drug effects on the total mRNA (transcriptome) or RNase digested to generate the ribosome protected fragments (translatome). The raw sequencing counts were analyzed using DESeq analysis to determine differential expression or differential ribosome occupancy between DMSO and Compound 107 treatment and are reported as the loge fold change. Quantitation of the ribosome protected fragments (RPF) directly reflects the extent that a given transcript is bound by ribosomes and is a measure of the drug effects on translational rate.
Loge fold change in TE values are calculated from the difference in loge fold change in translational rate (RPF) between drug treated and control, and the loge fold change in total mRNA (drug treated vs. control). Evaluation of TE results in normalizing translation changes to transcript abundance. The statistical significance for TE values was determined using Babel software which was developed for assessing the significance of changes in translational regulation between conditions.

[3] = system: CD3/CD28 activated T cells; test: Cytokines/chemokines in CD3/CD28 activated T cells; assay type: cell-based
TMD8 cells [4] = test: Cell survival of TMD8 cells; assay type: cell-based, human; conditions: increasing concentrations, data not shown
LAG-3 = LAG-3 protein expression in TMD8 cells; assay type: cell-based, human; conditions: data not shown
eIF4F complex = test: eIF4G bound to eIF4E (eIF4F complex) in TMD8 cells; assay type: cell-based, human; conditions: increased concentrations
TMD8 cells [5] = test: Non-radioactive nascent protein synthesis assay (AHA incorporation); assay type: cell-based, human
Method: as §1, §2
Newly synthesized proteins were detected by using the CLICK-IT Biotin Protein Analysis Detection Kit (Life Technologies; C33372) according to the manufacturer's protocol. Briefly, cells were rinsed with PBS once and incubated in methionine-free media for 30 min in the presence of the compound before being pulsed with the nonradioactive azide-containing methionine analogue AHA for 2 hrs. Cell lysates were then collected for the labeling reactions. The newly synthesized, AHA-incorporated protein was crosslinked to alkyne-derivatized biotin by a copper (I)—catalyzed cycloaddition (CLICK-IT) according to the manufacturer's instructions (Life Technologies). Following the labeling reactions, proteins were precipitated and quantified and subsequently subjected to immunoblotting analysis. Anti-streptavidin-HRP was used to detect newly synthesized proteins that contained biotin-conjugated AHA. Amount of newly synthesized proteins can be quantified by densitometry. • (e) Polysome Profiling

TMD8 cells [6] = test: Cytokine/chemokine protein expression in TMD8 cells; assay type: cell-based, human
[7] = system: eIF4E phosphorylation (p-eIF4E); test: Immunoblotting of eIF4E phosphorylation in TMD8 cells; assay type: cell-based, human
Method: as §1, §2, §3

TMD8 cells [8] = test: Proliferation of TMD8 cells; assay type: cell-based; conditions: Homo sapiens
[9] = 3 hour, Translational Efficiency
[10] = 3 hour, Translational Rate (RPF)
[11] = 48 hour, Translational Efficiency
[12] = 48 hour, Translational Rate (RPF)

Cc1cc(Nc2cc(N)ncn2)c(=O)n2c1C(=O)NC21CCCCC1.Cl [Compound 107]
polysome to monosome distribution (TMD8 cells [1]): not observed to alter | IRF7 at the protein level (IRF7): decreased | cyclin D3 protein level (Cyclin D3): reduction in cyclin D3 | cell surface levels of the immune checkpoint inhibitors PD-1 and LAG-3 (activated T cells; CD3/CD28 activated T cells): reduction | levels of PD-1 on the surface of activated T cells (activated T cells; data not shown): reduced | # Genes Down Regulated (TMD8 cells [2]; [9]): 24 | # Genes Up Regulated (TMD8 cells [2]; [9]): 27 | # Genes Down Regulated (TMD8 cells [2]; [10]): 58 | # Genes Up Regulated (TMD8 cells [2]; [10]): 64 | # Genes Down Regulated (TMD8 cells [2]; [11]): 31 | # Genes Up Regulated (TMD8 cells [2]; [11]): 15 | # Genes Down Regulated (TMD8 cells [2]; [12]): 123 | # Genes Up Regulated (TMD8 cells [2]; [12]): 92 | number of the 123 MNK-sensitive genes also down regulated at the mRNA expression level (TMD8 cells [2]; 48 hours, log2≤−0.75, p-value <0.01): 51 | number of genes selectively down regulated at the translational level in the absence of substantial transcript changes (TMD8 cells [2]; 48 hours, log2≤−0.75, p-value <0.05): 27 | translational efficiency of 3 hour gene set at 300 nM compared with 10 μM (TMD8 cells [2]; TMD8 cells, 3 hours, FIG. 7): equal or lesser extent | PD-1 translationally down regulated (TMD8 cells [2]; TMD8 cells, p-value=0.033, below significance cutoff): ~2 fold | select cytokines/chemokines (TNFα, IL10, CXCL10) [3]: reduction | cell survival (TMD8 cells [4]): promoted cell survival | expression of LAG-3 at the protein level (LAG-3): selective decrease | eIF4G bound to eIF4E (eIF4F complex): decrease | global protein synthesis rates (TMD8 cells [5]; 10 μM for 48 hours): modest reduction | global protein synthesis (TMD8 cells [5]; 0.3 or 10 μM for 3 hours and 0.3 μM for 48 hours): no impact | global protein synthesis (TMD8 cells [5]; 3 hour treatment duration): negligible effects | cytokines evaluated (TNFα, IL6, IL10) (TMD8 cells [6]; DLBCL cell line TMD8): modulation of one or more of the cytokines evaluated | cytokine/chemokine biomarkers (CXCL10, IL6 and IL10) at the protein expression level (TMD8 cells [6]; data not shown): down regulated | EC50 ([7]; Homo sapiens, TMD8 cell line, study report ECB-003, read-out: EC50 for inhibition of p-eIF4E): 9.7 nM | inhibition of eIF4E phosphorylation (western blot) ([7]; TMD8 cells, 0.3-10 μM, 3 or 48 hours): essentially complete inhibition | EC50 (TMD8 cells [8]): 3.3 µM
